Measured values reported in PubChem BioAssay (NCI).
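A five-concentration, 48-hour dose response in 96-well plates underlies each endpoint, interpolated linearly between surrounding concentrations. TGI is the concentration that stops growth completely.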

Legend:
Assay in all cases: growth of human tumour cells (NCI), 48 h
786-0 renal = test system: 786-0 renal
A498 renal = test system: A498 renal
A549 NSCLC = test system: A549 NSCLC
ACHN renal = test system: ACHN renal
CAKI-1 renal = test system: CAKI-1 renal
CCRF-CEM leukemia = test system: CCRF-CEM leukemia
COLO 205 colon = test system: COLO 205 colon
DLD-1 colon = test system: DLD-1 colon
DMS 114 small cell lung = test system: DMS 114 small cell lung
DMS 273 small cell lung = test system: DMS 273 small cell lung
EKVX NSCLC = test system: EKVX NSCLC
HCT-116 colon = test system: HCT-116 colon
HCT-15 colon = test system: HCT-15 colon
HL-60(TB) leukemia = test system: HL-60(TB) leukemia
HOP-18 NSCLC = test system: HOP-18 NSCLC
HOP-62 NSCLC = test system: HOP-62 NSCLC
HOP-92 NSCLC = test system: HOP-92 NSCLC
HT29 colon = test system: HT29 colon
IGROV1 ovarian = test system: IGROV1 ovarian
K-562 leukemia = test system: K-562 leukemia
KM12 colon = test system: KM12 colon
KM20L2 colon = test system: KM20L2 colon
LOX IMVI melanoma = test system: LOX IMVI melanoma
LXFL 529 NSCLC = test system: LXFL 529 NSCLC
M14 melanoma = test system: M14 melanoma
M19-MEL melanoma = test system: M19-MEL melanoma
MALME-3M melanoma = test system: MALME-3M melanoma
NCI-H226 lung = test system: NCI-H226 lung
NCI-H460 lung = test system: NCI-H460 lung
NCI-H522 lung = test system: NCI-H522 lung
OVCAR-3 ovarian = test system: OVCAR-3 ovarian
OVCAR-4 ovarian = test system: OVCAR-4 ovarian
OVCAR-5 ovarian = test system: OVCAR-5 ovarian
OVCAR-8 ovarian = test system: OVCAR-8 ovarian
RPMI-8226 leukemia = test system: RPMI-8226 leukemia
RXF 393 renal = test system: RXF 393 renal
RXF-631 renal = test system: RXF-631 renal
SF-268 CNS = test system: SF-268 CNS
SF-295 CNS = test system: SF-295 CNS
SF-539 CNS = test system: SF-539 CNS
SK-MEL-2 melanoma = test system: SK-MEL-2 melanoma
SK-MEL-28 melanoma = test system: SK-MEL-28 melanoma
SK-MEL-5 melanoma = test system: SK-MEL-5 melanoma
SK-OV-3 ovarian = test system: SK-OV-3 ovarian
SN12C renal = test system: SN12C renal
SNB-75 CNS = test system: SNB-75 CNS
SNB-78 CNS = test system: SNB-78 CNS
SW-620 colon = test system: SW-620 colon
TK-10 renal = test system: TK-10 renal
U251 CNS = test system: U251 CNS
UACC-257 melanoma = test system: UACC-257 melanoma
UACC-62 melanoma = test system: UACC-62 melanoma
UO-31 renal = test system: UO-31 renal
XF 498 CNS = test system: XF 498 CNS
BT-549 breast = test system: BT-549 breast
DU-145 prostate = test system: DU-145 prostate
HCC-2998 colon = test system: HCC-2998 colon
HS 578T breast = test system: HS 578T breast
MCF7 breast = test system: MCF7 breast
MDA-MB-231 breast = test system: MDA-MB-231 breast
MDA-MB-435 = test system: MDA-MB-435
MDA-N = test system: MDA-N
MOLT-4 leukemia = test system: MOLT-4 leukemia
NCI-H23 lung = test system: NCI-H23 lung
PC-3 prostate = test system: PC-3 prostate
SNB-19 CNS = test system: SNB-19 CNS
SR leukemia = test system: SR leukemia

Which results are given for `Nc1ccnc(=O)[nH]1`?
TGI (786-0 renal): > 100 µM; TGI (A498 renal): > 100 µM; TGI (A549 NSCLC): > 100 µM; TGI (ACHN renal): > 100 µM; TGI (CAKI-1 renal): > 100 µM; TGI (CCRF-CEM leukemia): > 100 µM; TGI (COLO 205 colon): > 100 µM; TGI (DLD-1 colon): > 100 µM; TGI (DMS 114 small cell lung): > 100 µM; TGI (DMS 273 small cell lung): > 100 µM; TGI (EKVX NSCLC): > 100 µM; TGI (HCT-116 colon): > 100 µM; TGI (HCT-15 colon): > 100 µM; TGI (HL-60(TB) leukemia): > 100 µM; TGI (HOP-18 NSCLC): > 100 µM; TGI (HOP-62 NSCLC): > 100 µM; TGI (HOP-92 NSCLC): > 100 µM; TGI (HT29 colon): > 100 µM; TGI (IGROV1 ovarian): > 100 µM; TGI (K-562 leukemia): > 100 µM; TGI (KM12 colon): > 100 µM; TGI (KM20L2 colon): > 100 µM; TGI (LOX IMVI melanoma): > 100 µM; TGI (LXFL 529 NSCLC): > 100 µM; TGI (M14 melanoma): > 100 µM; TGI (M19-MEL melanoma): > 100 µM; TGI (MALME-3M melanoma): > 100 µM; TGI (NCI-H226 lung): > 100 µM; TGI (NCI-H460 lung): > 100 µM; TGI (NCI-H522 lung): > 100 µM; TGI (OVCAR-3 ovarian): > 100 µM; TGI (OVCAR-4 ovarian): > 100 µM; TGI (OVCAR-5 ovarian): > 100 µM; TGI (OVCAR-8 ovarian): > 100 µM; TGI (RPMI-8226 leukemia): > 100 µM; TGI (RXF 393 renal): > 100 µM; TGI (RXF-631 renal): > 100 µM; TGI (SF-268 CNS): > 100 µM; TGI (SF-295 CNS): > 100 µM; TGI (SF-539 CNS): > 100 µM; TGI (SK-MEL-2 melanoma): > 100 µM; TGI (SK-MEL-28 melanoma): > 100 µM; TGI (SK-MEL-5 melanoma): > 100 µM; TGI (SK-OV-3 ovarian): > 100 µM; TGI (SN12C renal): > 100 µM; TGI (SNB-75 CNS): > 100 µM; TGI (SNB-78 CNS): > 100 µM; TGI (SW-620 colon): > 100 µM; TGI (TK-10 renal): > 100 µM; TGI (U251 CNS): > 100 µM; TGI (UACC-257 melanoma): > 100 µM; TGI (UACC-62 melanoma): > 100 µM; TGI (UO-31 renal): > 100 µM; TGI (XF 498 CNS): > 100 µM

Which TGI (786-0 renal) does the source give for `Cc1cccc(C)c1NC(=O)C(C#N)C1=C(Cl)C(=O)c2ccccc2C1=O` (stereo unspecified) here?
Its TGI is 45.7 µM.

What about the TGI (A498 renal) of the same compound?
Its TGI is 29.3 µM.

And the TGI (A549 NSCLC)?
The TGI was 41.6 µM.

What about the TGI (ACHN renal) of the same compound?
The TGI was 28.8 µM.

What about the TGI (BT-549 breast) of the same compound?
The TGI was 28.2 µM.

What about the TGI (CAKI-1 renal) of the same compound?
Its TGI is 38.1 µM.

And the TGI (CCRF-CEM leukemia)?
The TGI was 35.1 µM.

And the TGI (COLO 205 colon)?
The TGI was 10.2 µM.

And the TGI (DLD-1 colon)?
Its TGI is 30.1 µM.

And the TGI (DMS 114 small cell lung)?
Its TGI is 41.8 µM.

And the TGI (DMS 273 small cell lung)?
Its TGI is over 100 µM.

What about the TGI (DU-145 prostate) of the same compound?
The TGI was 28.1 µM.

And the TGI (EKVX NSCLC)?
The TGI was 38.5 µM.

What about the TGI (HCC-2998 colon) of the same compound?
Its TGI is 32.2 µM.

And the TGI (HCT-116 colon)?
The TGI was 30.6 µM.

What about the TGI (HCT-15 colon) of the same compound?
The TGI was 36 µM.

And the TGI (HL-60(TB) leukemia)?
The TGI was 38.2 µM.

And the TGI (HOP-18 NSCLC)?
The TGI was 25.3 µM.

And the TGI (HOP-62 NSCLC)?
Its TGI is 32.9 µM.

And the TGI (HOP-92 NSCLC)?
The TGI was 22.4 µM.

And the TGI (HS 578T breast)?
Its TGI is 52.1 µM.

And the TGI (HT29 colon)?
The TGI was 39.8 µM.

What about the TGI (IGROV1 ovarian) of the same compound?
The TGI was 31.8 µM.

What about the TGI (K-562 leukemia) of the same compound?
The TGI was over 36.4 µM.

What about the TGI (KM12 colon) of the same compound?
The TGI was 34.5 µM.

And the TGI (KM20L2 colon)?
Its TGI is 50.7 µM.

What about the TGI (LOX IMVI melanoma) of the same compound?
The TGI was 43.8 µM.

And the TGI (LXFL 529 NSCLC)?
Its TGI is 30 µM.

And the TGI (M14 melanoma)?
The TGI was 21.4 µM.

What about the TGI (M19-MEL melanoma) of the same compound?
Its TGI is 16.6 µM.

And the TGI (MALME-3M melanoma)?
The TGI was 30.4 µM.

What about the TGI (MCF7 breast) of the same compound?
The TGI was 46.2 µM.

What about the TGI (MDA-MB-231 breast) of the same compound?
Its TGI is 49.7 µM.

And the TGI (MDA-MB-435)?
Its TGI is 34.3 µM.

And the TGI (MDA-N)?
The TGI was 28.6 µM.

And the TGI (MOLT-4 leukemia)?
Its TGI is 26.9 µM.

What about the TGI (NCI-H226 lung) of the same compound?
The TGI was 17.4 µM.

What about the TGI (NCI-H23 lung) of the same compound?
Its TGI is 44 µM.

What about the TGI (NCI-H460 lung) of the same compound?
Its TGI is 55.4 µM.

What about the TGI (NCI-H522 lung) of the same compound?
The TGI was 26.2 µM.

What about the TGI (OVCAR-3 ovarian) of the same compound?
The TGI was 26.9 µM.

And the TGI (OVCAR-4 ovarian)?
Its TGI is 30.3 µM.

And the TGI (OVCAR-5 ovarian)?
The TGI was 37.4 µM.

What about the TGI (OVCAR-8 ovarian) of the same compound?
The TGI was 48.5 µM.

And the TGI (PC-3 prostate)?
The TGI was 28.9 µM.

And the TGI (RPMI-8226 leukemia)?
Its TGI is 53.6 µM.

And the TGI (RXF 393 renal)?
The TGI was over 47.8 µM.

And the TGI (RXF-631 renal)?
The TGI was 43 µM.

And the TGI (SF-268 CNS)?
Its TGI is 31.6 µM.

And the TGI (SF-295 CNS)?
The TGI was 32.5 µM.

And the TGI (SF-539 CNS)?
The TGI was 48.1 µM.

What about the TGI (SK-MEL-2 melanoma) of the same compound?
The TGI was 29.2 µM.

And the TGI (SK-MEL-28 melanoma)?
Its TGI is 38.1 µM.

What about the TGI (SK-MEL-5 melanoma) of the same compound?
Its TGI is 26.7 µM.

What about the TGI (SK-OV-3 ovarian) of the same compound?
Its TGI is 43.3 µM.

What about the TGI (SN12C renal) of the same compound?
The TGI was 32 µM.

And the TGI (SNB-19 CNS)?
Its TGI is 32.4 µM.

What about the TGI (SNB-75 CNS) of the same compound?
The TGI was 29.2 µM.

What about the TGI (SNB-78 CNS) of the same compound?
Its TGI is 56.1 µM.

And the TGI (SR leukemia)?
Its TGI is over 45.8 µM.

And the TGI (SW-620 colon)?
The TGI was 34.3 µM.

And the TGI (TK-10 renal)?
Its TGI is 33.7 µM.

And the TGI (U251 CNS)?
The TGI was 42.7 µM.

What about the TGI (UACC-257 melanoma) of the same compound?
Its TGI is 21.6 µM.

What about the TGI (UACC-62 melanoma) of the same compound?
The TGI was 33.4 µM.

What about the TGI (UO-31 renal) of the same compound?
The TGI was 26.6 µM.

And the TGI (XF 498 CNS)?
Its TGI is 28.9 µM.
